Where a name gives a salt, the structure may show the parent alone.
Key:
[1] = test system: A549 lung cancer cells; experiment: MTT cell viability assay, A549; assay type: cell-based, human; details: mean of three independent experiments (N = 9)
Description: (§1) To evaluate the effect of the examined series on the viability of different lung cancer cells, MTT assay was conducted after exposing A549, H1299, and H661 cell lines to increasing concentrations of each compound for 48 h. […] Table 2 and Supplementary Figure S92 (see Supplementary Materials) show the 50% inhibitory concentration (IC50) values for the compounds under investigation in A549, H1299, and H661 lung cancer cells.
(§2) The human lung cancer cell lines A549, H1299 and H661 and the normal cells dermal fibroblasts were obtained from the American Type Culture Collection ATCC. Cells were cultured as a monolayer at seeding density of 8 × 10^3 cells per well in high glucose Dulbecco’s modified eagle medium (DMEM) (Invitrogen, USA), as previously described. The in vitro assessment of the antitumorigenic activities related to the studied compounds was undertaken using the 3-(4,5-dimethylthiazol-2yl)-2,5-diphenyl tetrazolium bromide (MTT) colorimetric assay, as previously reported. The compounds under investigation were tested in three triplicates of each concentration in three independent assays for a total of nine replicates. Both positive (cisplatin) and negative (untreated culture) controls were applied under the same experimental conditions. Cells were cultured for 48 h at 37 °C in a 5% CO2 incubator. Afterwards, MTT assay was carried out where viable cell count was determined based on the amount of formazan crystals, as verified by the absorbance at 490 nm.
(§3) Data was analyzed by Graphpad Prism software (Graphpad Software Inc. Jolla, CA, USA) for the determination of IC50 value. All data were expressed as the average of triplicate experiments.

[2] = test system: H1299 lung cancer cells; experiment: MTT cell viability assay, H1299; assay type: cell-based, human; details: mean of three independent experiments (N = 9)
Description: as §1, §2, §3

[3] = test system: H661 lung cancer cells; experiment: MTT cell viability assay, H661; assay type: cell-based, human; details: mean of three independent experiments (N = 9)
Description: as §1, §2, §3

[4] = test system: human dermal fibroblasts; experiment: MTT cell viability assay, normal dermal fibroblasts; assay type: cell-based; details: 48 h, noncancerous human dermal fibroblasts
Description: as §1, §2, §3

| Compound | melting point [°C] | IC50 ([1]; 48 h) [µM] | IC50 ([2]; 48 h) [µM] | IC50 ([3]; 48 h) [µM] | IC50 [4] [µM] | IC50 ([1]; Homo sapiens, A549, 48 h) [µM] | IC50 ([2]; Homo sapiens, NCI-H1299, 48 h) [µM] | IC50 ([3]; Homo sapiens, NCI-H661, 48 h) [µM] | IC50 ([4]; Homo sapiens, Fibroblast) [µM] |
| --- | --- | --- | --- | --- | --- | --- | --- | --- | --- |
| CCCCCCCC[n+]1ccc(C(=O)N/N=C/c2ccc[n+](CCCCCCCC)c2)cc1 (as salt: phosphate) [Compound 16, 1-Octyl-3-((2-(1-octylpyridin-1-ium-4-carbonyl)hydrazono)methyl)pyridin-1-ium Hexafluorophosphate] | 58 to 59 |  |  |  |  |  |  |  |  |
| CCCCCCCCCC[n+]1ccc(C(=O)N/N=C/c2ccc[n+](CCCCCCCCCC)c2)cc1 (as salt: phosphate) [Compound 22, 1-Decyl-3-((2-(1-decylpyridin-1-ium-4-carbonyl)hydrazono)methyl)pyridin-1-ium Hexafluorophosphate] | 42 to 44 |  |  |  |  |  |  |  |  |
| N.N.[Cl][Pt][Cl] [Cisplatin, cisplatin, reference compound] |  | 23 | 18 | 32 | > 100 |  |  |  |  |
| CCCCCCCC[n+]1ccc(C(=O)NN=Cc2ccc[n+](CCCCCCCC)c2)cc1.[I-].[I-] [Compound 9, 1-Octyl-3-((2-(1-octylpyridin-1-ium-4-carbonyl)hydrazono)methyl)pyridin-1-ium Iodide] | 82 to 84 | 75.3 | 64.3 | 74.2 | > 300 |  |  |  |  |
| CCCCCCCCC[n+]1ccc(C(=O)NN=Cc2ccc[n+](CCCCCCCCC)c2)cc1.[I-].[I-] [Compound 10, 1-Nonyl-3-((2-(1-nonylpyridin-1-ium-4-carbonyl)hydrazono)methyl)pyridin-1-ium Iodide] | 76 to 78 | 55.6 | 63.1 | 60.1 | > 300 |  |  |  |  |
| CCCCCCCCCC[n+]1ccc(C(=O)NN=Cc2ccc[n+](CCCCCCCCCC)c2)cc1.[I-].[I-] [Compound 11, 1-Decyl-3-((2-(1-decylpyridin-1-ium-4-carbonyl)hydrazono)methyl)pyridin-1-ium Iodide] | 70 to 72 | 15.1 | 19 | 23.5 | > 300 |  |  |  |  |
| CCCCCCCCCCCC[n+]1ccc(C(=O)NN=Cc2ccc[n+](CCCCCCCCCCCC)c2)cc1.[I-].[I-] [Compound 12, 1-Dodecyl-3-((2-(1-dodecylpyridin-1-ium-4-carbonyl)hydrazono)methyl)pyridin-1-ium Iodide] | 63 to 65 | 26.9 | 30.1 | 29.8 | > 300 |  |  |  |  |
| CCCCCCCCCCCCCC[n+]1ccc(C(=O)NN=Cc2ccc[n+](CCCCCCCCCCCCCC)c2)cc1 [Compound 13, 1-Tetradecyl-3-((2-(1-tetradecylpyridin-1-ium-4-carbonyl)hydrazono)methyl)pyridin-1-ium Iodide] |  | 36.8 | 38 | 38.2 | > 300 |  |  |  |  |
| CCCCCCCCCCCCCCCC[n+]1ccc(C(=O)NN=Cc2ccc[n+](CCCCCCCCCCCCCCCC)c2)cc1 [Compound 14, 1-Hexadecyl-3-((2-(1-hexadecylpyridin-1-ium-4-carbonyl)hydrazono)methyl)pyridin-1-ium Iodide] |  | 7.11 | 10.1 | 11.2 | > 300 |  |  |  |  |
| CCCCCCCCCCCCCCCCCC[n+]1ccc(C(=O)NN=Cc2ccc[n+](CCCCCCCCCCCCCCCCCC)c2)cc1.[I-].[I-] [Compound 15, 1-Octadecyl-3-((2-(1-octadecylpyridin-1-ium-4-carbonyl)hydrazono)methyl)pyridin-1-ium Iodide] | 192 to 193 | 26.2 | 22.1 | 26.1 | > 300 |  |  |  |  |
| CCCCCCCC[n+]1ccc(C(=O)NN=Cc2ccc[n+](CCCCCCCC)c2)cc1 [Compound 17, 1-Octyl-3-((2-(1-octylpyridin-1-ium-4-carbonyl)hydrazono)methyl)pyridin-1-ium Tetrafluoroborate] |  |  |  |  |  | 69.1 | 66 | 61.2 | > 300 |
| CCCCCCCC[n+]1ccc(C(=O)NN=Cc2ccc[n+](CCCCCCCC)c2)cc1 [Compound 18, 1-Octyl-3-((2-(1-octylpyridin-1-ium-4-carbonyl)hydrazono)methyl)pyridin-1-ium Trifluoroacetate] |  | 78.5 | 71 | 74.5 | > 300 |  |  |  |  |
| CCCCCCCCC[n+]1ccc(C(=O)NN=Cc2ccc[n+](CCCCCCCCC)c2)cc1 [Compound 20, 1-Nonyl-3-((2-(1-nonylpyridin-1-ium-4-carbonyl)hydrazono)methyl)pyridin-1-ium Tetrafluoroborate] |  |  | 32.6 | 33 |  | 31.4 |  |  | > 300 |
| CCCCCCCCC[n+]1ccc(C(=O)NN=Cc2ccc[n+](CCCCCCCCC)c2)cc1 [Compound 21, 1-Nonyl-3-((2-(1-nonylpyridin-1-ium-4-carbonyl)hydrazono)methyl)pyridin-1-ium Trifluoroacetate] |  | 33.5 | 28 | 19.4 | > 300 |  |  |  |  |
| CCCCCCCCCC[n+]1ccc(C(=O)NN=Cc2ccc[n+](CCCCCCCCCC)c2)cc1 [Compound 24, 1-Decyl-3-((2-(1-decylpyridin-1-ium-4-carbonyl)hydrazono)methyl)pyridin-1-ium Trifluoroacetate] |  | 20 | 19 | 18.1 | > 300 |  |  |  |  |
| CCCCCCCCCCCC[n+]1ccc(C(=O)N/N=C/c2ccc[n+](CCCCCCCCCCCC)c2)cc1 [Compound 26, 11-Dodecyl-3-((2-(1-dodecylpyridin-1-ium-4-carbonyl)hydrazono)methyl)pyridin-1-ium Tetrafluoroborate] |  |  |  |  |  | 44 | 39.3 | 40.4 | > 300 |
| CCCCCCCCCCCC[n+]1ccc(C(=O)NN=Cc2ccc[n+](CCCCCCCCCCCC)c2)cc1 [Compound 27, 1-Dodecyl-3-((2-(1-dodecylpyridin-1-ium-4-carbonyl)hydrazono)methyl)pyridin-1-ium Trifluoroacetate] |  |  | 12.1 | 10.5 |  | 14.3 |  |  | > 300 |
| CCCCCCCCCCCCCC[n+]1ccc(C(=O)NN=Cc2ccc[n+](CCCCCCCCCCCCCC)c2)cc1 [Compound 29, 1-Tetradecyl-3-((2-(1-tetradecylpyridin-1-ium-4-carbonyl)hydrazono)methyl)pyridin-1-ium Tetrafluoroborate] |  |  |  |  |  | 42.1 | 44.6 | 46.8 | > 300 |
| CCCCCCCCCCCCCC[n+]1ccc(C(=O)NN=Cc2ccc[n+](CCCCCCCCCCCCCC)c2)cc1 [Compound 30, 1-Tetradecyl-3-((2-(1-tetradecylpyridin-1-ium-4-carbonyl)hydrazono)methyl)pyridin-1-ium Trifluoroacetate] |  | 38.6 | 38.5 | 41.9 | > 300 |  |  |  |  |
| CCCCCCCCCCCCCCCC[n+]1ccc(C(=O)NN=Cc2ccc[n+](CCCCCCCCCCCCCCCC)c2)cc1 [Compound 32, 1-Hexadecyl-3-((2-(1-hexadecylpyridin-1-ium-4-carbonyl)hydrazono)methyl)pyridin-1-ium Tetrafluoroborate] |  | 114 | 108 | 104 |  |  |  |  | > 300 |
| CCCCCCCCCCCCCCCC[n+]1ccc(C(=O)NN=Cc2ccc[n+](CCCCCCCCCCCCCCCC)c2)cc1 [Compound 33, 1-Hexadecyl-3-((2-(1-hexadecylpyridin-1-ium-4-carbonyl)hydrazono)methyl)pyridin-1-ium Trifluoroacetate] |  | 87.8 | 92.3 | 100 | > 300 |  |  |  |  |
| CCCCCCCCCCCCCCCCCC[n+]1ccc(C(=O)NN=Cc2ccc[n+](CCCCCCCCCCCCCCCCCC)c2)cc1 [Compound 35, 1-Octadecyl-3-((2-(1-octadecylpyridin-1-ium-4-carbonyl)hydrazono)methyl)pyridin-1-ium Tetrafluoroborate] |  | 421 | 399 | 382 | > 1000 |  |  |  |  |
| CCCCCCCCCCCCCCCCCC[n+]1ccc(C(=O)NN=Cc2ccc[n+](CCCCCCCCCCCCCCCCCC)c2)cc1 [Compound 36, 1-Octadecyl-3-((2-(1-octadecylpyridin-1-ium-4-carbonyl)hydrazono)methyl)pyridin-1-ium Trifluoroacetate] |  | 920 | 947 | 904 | > 1000 |  |  |  |  |
